Data taken from patent US11203598B2, “Compounds for repressing cancer cell growth” (Institute For Cancer Research, priority 2018, dated 2021).

Tests used:
Assay type in all cases: cell-based, human
[1] = tested on: HCT116 p53-null cells; experiment: Cell Titer-Glo cell viability assay; settings: 72 hours, dose dependent
Method: (§1) Cell lines at a concentration of 4×10^3 cells/well were seeded out on an opaque 96-well plate and treated with CB002 and Analog 11 in ranging doses starting from 200 μmol/L with DMSO controls. At 72 hours after treatment, cells were mixed with 30 μL Cell Titer-Glo reagent and after ten minutes of room temperature incubation were imaged using IVIS imaging system (Xenogen).

[2] = tested on: HCT116 cells; experiment: Cell Titer-Glo cell viability assay; settings: 72 hours, dose dependent
Method: as §1

[3] = tested on: HCT116 p53-null cells; experiment: FACS sub-G1 analysis; settings: 72 hours, dose dependent, over untreated controls
Method: (§2) Cells were seeded out at 1×10^6 cells/well on six well plates and treated with CB002 and Analog 11 at ranging doses with DMSO controls. Cells were harvested after 72 hours of treatment, all cells including floating cells were fixed with ethanol and stained with Propidium Iodide and then analyzed using Epics Elite flow cytometer to measure the DNA content of the stained cells.

[4] = tested on: HCT116 cells; experiment: FACS sub-G1 analysis; settings: 72 hours, dose dependent, over untreated controls
Method: as §2

[5] = tested on: p53 pathway proteins in SW480 cells; experiment: Western blot of p53, p53 targets, apoptosis and autophagy markers; settings: for Noxa expression: 24 hour, 100 μM CB002, 25 NM Analog 4, 100 μM Analog 11; for mutant p53 protein level: varying doses, anti-p53 (DO-1)
Method: After treatment, cells were harvested by trypsinization, washed with PBS, and lysed with RIPA buffer (Sigma-Aldrich) for 30 minutes to 1 hour at 4° C. Protein lysates were spun down and supernatant was collected. Protein quantification was performed using a Pierce™ BCA Protein Assay Kit (Thermo Fisher Scientific). 1×NuPAGE® LDS sample buffer (Thermo Fisher Scientific) and 2-Mercaptoethanol as the reducing agent (Sigma-Aldrich) were added to protein lysates, followed by boiling for 15 minutes at 95° C. Equal total protein amounts samples were loaded into NuPAGE™ Novex™ 4-12% Bis-Tris Protein Gels (1.5 mm, Thermo Fisher Scientific) and gel eletrophoresis was performed with NuPAGE™ MES SDS Running Buffer. Proteins were transferred onto an Immobilon-P membrane (PVDF, EMD Millipore) using a Bio-Rad system with a 10% Tris-Glycine and 10% methanol transfer buffer diluted in distilled and deionized water. After transfer, membranes were blocked with 10% milk in TBST solution and then incubated overnight with primary antibody, washed with TBST and incubated with secondary antibody for 1 hour. Incubations were performed in 5% milk in TBST solution. Signal was detected by using a chemiluminescent detection kit, followed by autoradiography. The following antibodies were used: p53 (DO-1, 1:1000, Santa Cruz), p73 (1:1000, Bethyl Laboratories), p21 and NOXA (1:250, EMD Millipore), DR5, FADD, cleaved caspase 3, cleaved caspase 8, cleaved PARP, and LC3B (1:1000, Cell Signaling), and β-actin (1:10000, Sigma).
Proteins were isolated using NP40 Lysis Buffer (20 mmol/L Tris-HCl (pH 7.4), 150 mmol/L NaCl, 5 mmol/L EDTA, 50 mmol/L NaF, 1 mmol/L glycerophosphate, 5 mmol/L Na4P2O7, 0.5% NP40, and complete protease inhibitor cocktail (Roche)) and electrophoresed through 4-12% SDS-PAGE followed by semi-dry transfer to PVDF membranes. The PVDF membranes were incubated with different antibodies including p21 (OP64-100UG, EMD Millipore (world wide web at emdmillipore.com/US/en/product/Antip21WAF1-(Ab-1)-Mouse-mAb-(EA10), EMD_BIO-OP64)), PUMA (12450S, Cell Signaling Technology, world wide web at cellsignal.com/products/primary-antibodies/puma-d30c10-rabbit-mab/12450), DR5 (3696S, Cell Signaling Technology, world wide web at cellsignal.com/products/primary-antibodies/dr5-antibody/3696?N=4294956287&Ntt=3696s&fromPage=plp& requestid=541668), p53(sc-126, Santa Cruz, world wide web at scbt.com/scbt/fr/product/p53-antibody-do-1), and RAN (610341, BD Transduction Laboratories, world wide web at bdbiosciences.com/us/reagents/research/antibodies-buffers/cell-biologyreagents/cell-biology-antibodies/purified-mouse-anti-ran-20ran/p/610341) in blocking buffer at 4° C. overnight. Bound antibody will be detected using IRDye secondary antibodies (LI-COR Biosciences,) in Odyssey blocking buffer for 1 hour then imaged using the ODYSSEY infrared imaging system.

[6] = tested on: SW480 cells; experiment: CellTiter-Glo luminescent cell viability assay; settings: for cell viability: dose dependent
Method: Cells were seeded in 96-well plates at a density of 5×10^3 cells per well. 20 μL of CellTiter-Glo® Reagent was added directly to the wells, following the manufacturer's protocol, and bioluminescence signal was determined using an IVIS imaging system.
as §1
To begin establishing the potential of CB002 as a candidate therapeutic agent, its therapeutic index was determined by treating cancer (DLD-1, SW480, and RXF393) and normal (WI38 and MRC5) cell lines with concentrations of CB002 ranging from 0-500 μM for a period of 72 hours and assessing cell viability by the CellTiter-Glo® luminescence assay (see, FIG. 2). CB002 has a significant therapeutic index among the cells tested.

[7] = tested on: SW480 cells; experiment: CellTiter-Glo luminescent cell viability assay; settings: 24 hours

Cn1c(=O)c2c(nc(Nc3ccccc3)n2C)n(C)c1=O [Analog 11, 8-anilino-1,3,7-trimethyl-3,7-dihydro-1Hpurine-2,6-dione]
cell viability [1]: reduced cell viability | cell viability [2]: reduced cell viability | sub-G1 fraction [3]: increased cells in sub-G1 fraction | sub-G1 fraction [4]: increased cells in sub-G1 fraction | Noxa expression [5]: Induction of Noxa expression | mutant p53 protein level ([5]; 24 hours): decrease moderately | cell viability ([6]; 72 hours): reduced cell viability | combination index with Irinotecan ([7]; 0-100 μM Irinotecan with 0-200 μM Analog 11, CompuSyn): synergizes with Irinotecan

Cn1c(=O)c2[nH]c(Nc3ccccc3)nc2n(C)c1=O [CB002, 8-anilino-1,3-dimethyl-3,7-dihydro-1H-purine-2,6-dione]
cell viability [1]: reduced cell viability | cell viability [2]: reduced cell viability | sub-G1 fraction [3]: increased cells in sub-G1 fraction | sub-G1 fraction [4]: increased cells in sub-G1 fraction | Noxa protein expression ([5]; 50 μM and 96 μM): increased | expression of p21 and DR5 ([5]; 12, 25, and 50 μM, 16 hours): increase the expression | p53 protein expression level (mutant p53) ([5]; 12, 25, and 50 μM, 16 hours, versus DMSO): constant p53 protein expression levels | cleaved PARP expression ([5]; 12, 25, and 50 μM, versus vehicle): observed to increase | LC3B expression (autophagy marker) ([5]; 50 and 96 μM): induce the expression of LC3B | Noxa expression [5]: Induction of Noxa expression | mutant p53 protein level ([5]; 24 hours): decrease significantly | cleaved caspase 3 and cleaved PARP expression ([5]; DR5 siRNA knockdown, 50 and 96 μM): continued to induce the expression | cleaved PARP expression ([5]; FADD knockdown cells, 24 hours): able to induce the expression of cleaved PARP | LC3B expression ([5]; NOXA knock-down cells, 50 and 96 μM): failed to induce LC3B expression | c-caspase 3 and cleaved PARP expression ([5]; NOXA shRNA knockdown, 50 and 96 μM): did not induce the expression of apoptotic markers | PARP cleavage ([5]; atg5 siRNA knockdown, 16 and 24 hours): complete loss of PARP cleavage | cleaved caspase 8 and cleaved PARP ([5]; combination with 50 μM chloroquine, 24 hours): reduced compared to CB002 alone | expression of p21, DR5 and PARP cleavage ([5]; p73 siRNA knockdown cells): increase the expression of p53 target genes p21 and DR5, and associated PARP cleavage | combination index (CI), CB002 and CPT-11 ([6]; 72 hours): synergism | cell viability ([6]; 72 hours): reduced cell viability | combination index (CI), CB002 and 5-FU ([6]; 72 hours, CI<1 indicates synergism): < 1.0 | cell viability, combination with 5-FU ([6]; CB002 (22 μM and 66 μM) with 5-FU (60 μg/ml), 72 hours, versus single agents): significantly reduced cell viability | cell viability, combination with CPT-11 ([6]; CB002 (66 μM) and CPT-11 (a series of doses), 72 hours, versus single agents): significantly reduced cell viability | IC50 ([6]; Homo sapiens, SW480, 72 hours, GraphPad): 96.5 µM | combination index with Ganetespib ([7]; 0-20 μM Ganetespib with 0-200 μM CB002, CompuSyn): synergizes with Ganetespib
